Reference: patent publication US10668127B2, “Method and composition for synchronizing time of insemination” (UNITED-AH II, LLC, priority 2009, dated 2020)

How the values were obtained:
sows [1] = assay: Ovulation detection by transrectal ultrasonography (Examples 1-7); type: in vivo, swine; conditions: for OV48 (%): 48 h after treatment, OG, LS means
Protocol: Approximately 120 parity one to seven sows (30 sows within each treatment group) were used to obtain ovulation and reproductive tract data. All sows were of the same genotype (PIC C22). Following 16 to 24 days of lactation, sows were blocked by length of lactation and parity and randomly assigned to one of four treatments: 1) a placebo group, receiving a placebo gel at 96±2 hours post-weaning and a single AI 24 hours later, 2) triptorelin gel at 96±2 hours post-weaning and AI 18 to 20 hours later. 3) triptorelin gel at 96±2 hours post-weaning and AI 24 to 26 hours later, and 4) triptorelin gel at 96±2 hours post-weaning and AI 30 to 32 hours later. The placebo formulation was identical to the active formulation but without the hormone being present. All treatments were deposited into the anterior vagina within 2 cm of the cervix. Follicular development and ovulation was monitored via real time ultrasound at 24, 32, 40, 48, and 56 hours after treatment. Thirty (30) days after insemination, all sows were slaughtered and reproductive tracts obtained. Pregnancy rates and embryo survival were determined. Triptorelin was administered at 96 hours (±2 hr) post-weaning as a single 2 mL dose deposited approximately 1-2 cm posterior to the cervix with a modified artificial insemination catheter. Weaning of sows occurred between 10 a.m. and noon on Day (O). The timing of the insemination for each group of sows was given as directed in the protocol. Those sows scheduled to be inseminated 18 hours following administration of triptorelin were generally inseminated between 6:00 a.m. and 8:00 a.m. the following day, those sows scheduled to be inseminated 24 hours following administration of triptorelin were generally inseminated between noon and 2:00 p.m. the following day and those sows scheduled to be inseminated 30 hours following administration of triptorelin were generally inseminated between 6:00 p.m. and 8:00 p.m. the following day. The single insemination for each sow was performed as they were normally done at the farm. […] Ultrasonography was performed at 24 hr (±1.5 hour) after treatment on Day 5 and again at 8:00 p.m. (±1.5 hour) on Day 5. On Day 6 transrectal ultrasonography was performed at 4:00 a.m. (±1 hour), noon (±1 hr) and 8:00 p.m. (±1 hr) until ovulation was complete or until the 8:00 p.m. ultrasonography on Day 6 (the 56 hour mark from the animals treated at 96 hours post-weaning) whichever came first. An Aloka 500 ultrasound machine was used for this purpose, with a 7.5 MHz linear array transducer attached to a fixed-angle PVC stabilizing rod to facilitate insertion into the rectum. The transducer and PVC rod were coated with a gynecological lubricant and gently inserted into the rectum until the ovaries could be visualized, one at a time. The diameters of the three largest follicles were to be recorded (to the nearest 0.1 mm) at each scanning. A sow was declared to have ovulated when the number of large follicles 6.5 mm) fell to less than 3. […] For all analyses, the models contained the fixed effects of treatment (placebo controls inseminated 24 hours after treatment, triptorelin treated sows inseminated 18 hours after treatment, triptorelin treated sows inseminated 24 hours after treatment and triptorelin treated sows inseminated 30 hours after treatment) and replicate. The records for sow parity and lactation length were included as covariates. First order interaction of treatment and replicate was tested and removed when non-significant. […]

sows [2] = assay: Pregnancy rate and litter size at slaughter 30 days after insemination (Examples 1-7); type: in vivo, swine; conditions: OG, LS means; for Pregnant (%): pregnant at slaughter of all sows allotted
Protocol: Approximately 120 parity one to seven sows (30 sows within each treatment group) were used to obtain ovulation and reproductive tract data. All sows were of the same genotype (PIC C22). Following 16 to 24 days of lactation, sows were blocked by length of lactation and parity and randomly assigned to one of four treatments: 1) a placebo group, receiving a placebo gel at 96±2 hours post-weaning and a single AI 24 hours later, 2) triptorelin gel at 96±2 hours post-weaning and AI 18 to 20 hours later. 3) triptorelin gel at 96±2 hours post-weaning and AI 24 to 26 hours later, and 4) triptorelin gel at 96±2 hours post-weaning and AI 30 to 32 hours later. The placebo formulation was identical to the active formulation but without the hormone being present. All treatments were deposited into the anterior vagina within 2 cm of the cervix. Follicular development and ovulation was monitored via real time ultrasound at 24, 32, 40, 48, and 56 hours after treatment. Thirty (30) days after insemination, all sows were slaughtered and reproductive tracts obtained. Pregnancy rates and embryo survival were determined. Triptorelin was administered at 96 hours (±2 hr) post-weaning as a single 2 mL dose deposited approximately 1-2 cm posterior to the cervix with a modified artificial insemination catheter. Weaning of sows occurred between 10 a.m. and noon on Day (O). The timing of the insemination for each group of sows was given as directed in the protocol. Those sows scheduled to be inseminated 18 hours following administration of triptorelin were generally inseminated between 6:00 a.m. and 8:00 a.m. the following day, those sows scheduled to be inseminated 24 hours following administration of triptorelin were generally inseminated between noon and 2:00 p.m. the following day and those sows scheduled to be inseminated 30 hours following administration of triptorelin were generally inseminated between 6:00 p.m. and 8:00 p.m. the following day. The single insemination for each sow was performed as they were normally done at the farm. […] There was a tendency (p=0.09) for triptorelin treated sows inseminated at 18 hours (12.4 fetuses) and at 24 hours (11.8 fetuses) post treatment to have a higher number of healthy fetuses than triptorelin treated sows inseminated at 30 hours (8.6) post treatment and for vehicle treated sows inseminated at 24 hours (8.6) following treatment. […] For all analyses, the models contained the fixed effects of treatment (placebo controls inseminated 24 hours after treatment, triptorelin treated sows inseminated 18 hours after treatment, triptorelin treated sows inseminated 24 hours after treatment and triptorelin treated sows inseminated 30 hours after treatment) and replicate. The records for sow parity and lactation length were included as covariates. First order interaction of treatment and replicate was tested and removed when non-significant. Differences between treatments were tested on least squares means estimates using the T test at P<0.05.

CC(C)C[C@H](NC(=O)[C@@H](Cc1c[nH]c2ccccc12)NC(=O)[C@H](Cc1ccc(O)cc1)NC(=O)[C@H](CO)NC(=O)[C@H](Cc1c[nH]c2ccccc12)NC(=O)[C@H](Cc1c[nH]cn1)NC(=O)[C@@H]1CCC(=O)N1)C(=O)N[C@@H](CCCNC(=N)N)C(=O)N1CCC[C@H]1C(=O)NCC(N)=O [triptorelin, pGlu-His-Trp-Ser-Tyr-D-Trp-Leu-Arg-Pro-Gly-NH2]
sows ovulating during their most synchronous 24 hr period (sows [1]; 120 to 144 hr after weaning, triptorelin treated sows): 70-77% | OV48 (%) (sows [1]; AI 18 h): 74.0% | OV48 (%) (sows [1]; AI 24 h): 77.0% | OV48 (%) (sows [1]; AI 30 h): 76.8% | percentage of sows ovulating by 56 hours after treatment (sows [1]; average of triptorelin treated sows): 80.4% | Number of Healthy Fetuses (sows [2]; AI 18 h): 12.4 | Number of Healthy Fetuses (sows [2]; AI 24 h): 11.8 | Number of Healthy Fetuses (sows [2]; AI 30 h): 8.6 | Pregnant (%) (sows [2]; AI 18 h): 74.4% | Pregnant (%) (sows [2]; AI 24 h): 68.1% | Pregnant (%) (sows [2]; AI 30 h): 62.3%
